Measured values as given in US20160015803A1, “IMMUNOSTIMULATORY COMBINATIONS AND USE THEREOF” (priority 2014, published 2016).

Test system: markers of innate activation
Assay: in vivo activity, markers of innate activation after IV injection
Conditions: Rhesus; 24-72 hours after IV injection
From the text: Based on these findings in mice we explored the potential for the use of polyIC-LC/αCD40 combination vaccination in non-human primates (NHP) in order to validate the clinical efficacy. Human anti-human CD40 (Kirin Pharmaceuticals) having the variable heavy and light sequences in the Sequence Listing were produced in cell culture. CD40 binding activity and agonistic activity was confirmed against both human and Rhesus Macaque PBMCs. In vivo activity in Rhesus was also confirmed by examining markers of innate activation 24-72 hours after IV antibody injection. PolyIC-LC was obtained from Oncovir Inc. and its activity was confirmed in vivo similar to the αCD40.

Q: How did the “In vivo activity (markers of innate activation)” value turn out when PolyIC-LC was run?
A: Its value is “confirmed”.
